What all share (assay): growth of human tumour cells (NCI), 48 h
Assay [1] concerns M14 melanoma.
Assay [2] relates to DLD-1 colon.
In assay [3] the test system is XF 498 CNS.
The test system of assay [4] is LXFL 529 NSCLC.
Assay [5] concerns DMS 114 small cell lung.
In assay [6] the test system is RXF-631 renal.
The subject of assay [7] is KM20L2 colon.
Assay [8] deals with SNB-78 CNS.
Assay [9] has as its system HOP-18 NSCLC.
Assay [10] relates to DMS 273 small cell lung.
For assay [11], the system named is M19-MEL melanoma.

Each structure is given as a SMILES string.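 48-hour exposure; five concentrations; linearly interpolated endpoints. TGI denotes the concentration required for complete inhibition of growth.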

Regarding `COC1(C)CC2N(C(=O)c3ccccc3)N=C(c3ccccc3)CC2(C)O1` (stereo unspecified), the TGI in assay [1], in [2], in assay [3], in assay [4], in assay [5] and in assay [6] was greater than 100 µM in each case. The TGI in assay [7] is greater than 100 µM.

As for `O=C1O[C@@H](c2ccccc2)C[C@@H]1CN1CCOCC1`, the TGI in assay [1], in assay [2], in assay [3], in [4], in assay [5] and in [6] was greater than 100 µM throughout. The TGI in [8] and in [7] was greater than 100 µM in each case.

As for `C[N+](C)(C)CC(=O)N/N=c1\cc(C(=O)Nc2ccc(N=O)cc2C#N)oc2cc(O)ccc12`, the TGI in [9], in assay [1], in assay [2], in assay [3], in [4] and in assay [10] was greater than 100 µM throughout. Besides, the TGI in [11], in assay [5], in [6], in assay [8] and in assay [7] was greater than 100 µM each time.

With `N#CCCN(c1ccc(C=Nc2cccc([N+](=O)[O-])c2)cc1)S(=O)(=O)c1ccccc1`, the TGI in assay [1], in assay [2], in [3], in assay [4], in assay [10] and in assay [5] was greater than 100 µM each time. Moreover, the TGI in assay [6] and in assay [8] was greater than 100 µM in each case.

As for `CCSc1nnc(CSc2nc(-c3ccccc3)c(-c3ccccc3)[nH]2)n1-c1ccccc1`, the TGI was determined as 30.4 µM in assay [9]; 34.9 µM in assay [1]; 37 µM in assay [2]; 35.3 µM in assay [3]; 67 µM in assay [4]; 66.3 µM in [10]. Moreover, the TGI in [11] is 33.3 µM; in assay [5], 39.1 µM; in assay [6] it was 63.3 µM; in assay [8] it was greater than 100 µM; in assay [7], 32.1 µM.

Regarding `CCOC(=O)C1=C(C)N(c2ccccc2)C2=C(C(=O)N(c3ccccc3)C2c2ccccc2)C1c1ccccc1` (stereo unspecified), the TGI in assay [9], in assay [1], in [2], in [3], in [4] and in assay [10] was greater than 100 µM in each case. The TGI in [11], in [5], in assay [6], in assay [8] and in assay [7] was greater than 100 µM in each case.

Source of the values: PubChem BioAssay (NCI).
